Laboratory results published in patent publication US6465494B1, “Methods for treatment of cystic fibrosis” (Cell Pathways, Inc., priority 2001, dated 2002).
Where two headings read alike, the source gives them in different places.

Key:
[1] = target: T1, GST-cGB-PDE5 fusion protein (Homo sapiens, UniProt O76074); assay: cGMP binding assay with GST-cGB-PDE5 fusion protein; conditions: for competition with cGMP binding to GST-cGB-PDE5 at high concentration: compound at high concentration, cGMP 2 μM
T1 construct: made in house; host or cells: E. coli BL21 (DE3)
Text: RT-PCR method is used to obtain the cGB domain of PDE5 with forward and reverse primers designed from bovine PDE5A cDNA sequence (McAllister-Lucas L. M et al, J. Biol. Chem. 268, 22863-22873, 1993) and the selection among PDE 1-10 families. 5′-3′, Inc. kits for total RNA followed by oligo (dT) column purification of mRNA are used with HT-29 cells. […] It is then cloned into pGEX-5X-3 glutathione-S-transferase (GST) fusion vector (Pharmacia Biotech )with tac promoter, and EcoRI and XhoI cut sites. The fusion vector is then transfected into E. Coli BL21 (DE3) bacteria (Invitrogen). The transfected BL21 bacteria is grown to log phase, and then IPTG is added as an inducer. The induction is carried at 20° C. for 24 hrs. The bacteria are harvested and lysed. The soluble cell lysate is incubated with GSH conjugated Sepharose 4B (GSH-Sepharose 4B). The GST-cGB-PDE5 fusion protein can bind to the GSH-Sepharose beads, and the other proteins are washed off from beads with excessive cold PBS.
Then, the mixture is transferred to Brandel MB-24 cell harvester with GF/B as the filter membrane followed by 2 washes with 10 mL of cold 5 mM potassium buffer(pH 6.8). The membranes are then cut out and transferred to scintillation vials followed by the addition of 1 mL of H2O and 6 mL of Ready Safe™ liquid scintillation cocktail to each vial. The vials are counted on a Beckman LS 6500 scintillation counter.
The quenching by filter membrane or other debris are also calibrated.

[2] = tested on: U937 cells; assay: apoptosis induction of U937 cells (active caspase 3 immunofluorescence); format: cell-based; conditions: 24 hours
Method: The U937 monocyte cell line was derived from a histocytic lymphoma and can be driven to differentiate into an ‘activated macrophage like’ state by treatment with 5nM phorbal ester (TPA). Treated U937 cells become adherent, increase their cytoplasmic volume and express macrophage-specific cell surface markers. The presence and level of PDE2 and 5 mRNA in both differentiated and non-differentiated U937 cells was confirmed by performing RT-PCR experiments on total RNA.
U937 cells (from ATCC Rockville, Md.) were grown in RPMI media supplemented with 5% FCS, glutamine, antibiotic/antimycotic and sodium pyruvate. Total RNA was isolated from two U937 cultures, one treated with 5nM TPA for 48 hours and one grown in normal media as listed above, using the Rouche High Pure RNA Isolation Kit (cat# 1 828 665) as per manufacturers protocol. cDNA was then synthesized from the total RNA using GibcoBRL Superscriptll (Cat # 18064-022) reverse transcriptase as per manufacturers protocol. The resulting cDNA was used as a template for RT-PCR reactions using primer sets specific for PDE2 (forward: […], reverse: […]) or PDE5 (forward: […], reverse: […]). mRNA for PDE2 and 5 were both present in the untreated U937 cells. Upon treatment with TPA, the relative amounts of PDE2 mRNA increased 5 fold. Therefore, U937 cells treated with TPA and driven to differentiate into an activated macrophage like state have elevated levels of PDE2 mRNA (see FIG. 1).
The presence of PDE2 and PDE5 protein within U937 cells was confirmed by indirect immunofluorescence (IIF). U937 cells were cultured as above. Two U937 cultures, one grown in the presence of 5 nM TPA for 48 hours and one grown in normal media were processed. All cultures were collected by centrifugation (Shandon Cytospin, 2 minutes @ 600 rpm) onto poly-L lysine-coated slides and immediately fixed in fresh 3% paraformaldehyde buffered in PBS for 10 minutes. Adherent cultures were grown on coverslips and fixed as above. […]
The level of apoptosis in U937 cells was quantified by scoring 500 consecutive cells for the presence of active caspase 3. […]

[3] = target: native bovine PDE5 (Bos taurus, UniProt Q28156); conditions: read-out: Kd of cGMP binding, native bovine PDE5; cited from earlier work
[4] = target: PDE5 (Homo sapiens, UniProt O76074); assay: cGMP PDE inhibition, 3H-cGMP hydrolysis: PDE5; format: biochemical; parameters: partially purified cGMP-specific PDE isolated from HT-29 cells; endogenous in cells; host or cells: HT-29
Method: (Thompson, W. J., Teraski, W. L., Epstein, P. M., Strada, S. J., Advances in Cyclic Nucleotide Research, 10:69-92, 1979, which is incorporated herein by reference). […] The mixture is incubated at 30° C. for 10 minutes with isolated PDE2 and/or PDE5. Reactions are terminated, for example, by boiling the reaction mixture for 75 seconds. After cooling on ice, 100 μl of 0.5 mg/mL snake venom (O. Hannah venom available from Sigma) is added and incubated for 10 minutes at 30° C. This reaction is then terminated by the addition of an alcohol, e.g. 1 mL of 100% methanol. Assay samples are applied to 1 mL Dowex 1-X8 column; and washed with 1 mL of 100% methanol. The amount of radioactivity in the breakthrough and the wash from the column is combined and measured with a scintillation counter. The degree of phosphodiesterase inhibition is determined by calculating the amount of radioactivity in drug-treated reactions and comparing against a control sample (a reaction mixture lacking the tested compound but with drug solvent).
Compounds of this invention are also PDE2 and PDE5 inhibitors as taught in part U.S. patent application Ser. No. 09/046,739 filed Mar. 24, 1998. […] The amount of radioactivity in the breakthrough and the wash from the columns in then measured with a scintillation counter. […]

Structure (SMILES) | competition with cGMP in binding to the cGMP binding sites of GST-cGB-PDE5 ([1]; 3H-cGMP 2 μM, 22° C., 1 hour) | further results
O=C([O-])C1CCN(c2nc(NCc3ccc4c(c3)OCO4)c3cc(Cl)ccc3n2)CC1.[Na+] [Example E4021] | None of the PDE5 inhibitors showed any competition with cGMP | 
O=c1[nH]cnc2c1ncn2[C@@H]1O[C@@H]2COP(=O)(O)O[C@H]2[C@H]1O [Cyclic IMP, cyclic IMP] |  | competition with cGMP binding to GST-cGB-PDE5 at high concentration [1]: can partially compete
CSc1ccc(/C=C2/C(C)=C(CC(=O)O)c3cc(F)ccc32)cc1 [Sulindac sulfide, sulindac sulfide] | None of the PDE5 inhibitors showed any competition with cGMP | 
COc1ccc(C2CNC(=O)C2)cc1OC1CCCC1 (stereo not shown) [rolipram, reference compound] |  | levels of apoptosis (active caspase 3) ([2]; 0.5uM): No increase in the levels of apoptosis compared to normal background
Nc1nc2c(ncn2[C@@H]2O[C@@H]3COP(=O)(O)O[C@H]3[C@H]2O)c(=O)[nH]1 [cGMP, cyclic 3′,5′-guanosine monophosphate] |  | Kd [3]: 1300 nM; Kd ([1]; read-out: Kd of cGMP binding to GST-cGB-PDE5 fusion protein, two cGMP binding sites): 1600 ± 200 nM
Nc1nc2c(nc(Br)n2[C@@H]2O[C@@H]3COP(=O)(O)O[C@H]3[C@H]2O)c(=O)[nH]1 [Example 8-bromo-cGMP, 8-bromo-cGMP] |  | competition with cGMP binding to GST-cGB-PDE5 at high concentration [1]: can partially compete
CCCCOC1C2OP(=O)(O)OCC2OC1n1cnc2c(=O)[nH]c(N)nc21 (stereo not shown) [2′-O-butyl-cGMP] | did not compete | 
CC1=C(CC(=O)NCc2ccccc2)c2cc(F)ccc2/C1=C\c1ccncc1 [Example 1, (Z)-5-Fluoro-2-Methyl-(4-Pyridinylidene)-3-(N-Benzyl)-Indenylacetamide] |  | IC50 [4]: 680 nM
CCCOc1ccccc1-c1nc2nn[nH]c2c(=O)[nH]1 [zaprinast] | None of the PDE5 inhibitors showed any competition with cGMP | 
CCCc1nn(C)c2c(=O)[nH]c(-c3cc(S(=O)(=O)N4CCN(C)CC4)ccc3OCC)nc12 [sildenafil, reference compound] |  | levels of apoptosis (active caspase 3) ([2]; 0.3nM): No increase in the levels of apoptosis compared to normal background
CCCCOC1C2OP(=O)(O)OCC2OC1n1cnc2c(N)ncnc21 (stereo not shown) [2′-O-butyl-cAMP] | did not compete | 
CC1=C(CC(=O)O)c2cc(F)ccc2/C1=C\c1ccc(S(C)(=O)=O)cc1 [exisulind] | None of the PDE5 inhibitors showed any competition with cGMP | 
O=c1ccn([C@@H]2O[C@@H]3COP(=O)(O)O[C@H]3[C@H]2O)c(=O)[nH]1 [cUMP, cyclic UMP] | did not compete | 
Nc1ncnc2c1ncn2[C@@H]1O[C@@H]2COP(=O)(O)O[C@H]2[C@H]1O [Cyclic AMP] |  | competition with cGMP in binding to the cGMP binding sites of GST-cGB-PDE5 [1]: did not compete
Nc1ccn([C@@H]2O[C@@H]3COP(=O)(O)O[C@H]3[C@H]2O)c(=O)n1 [cCMP, cyclic CMP] | did not compete | 
